From patent US20260144829A1, “SYNBIOTIC COMPOSITION, METABOLITES, AND METHOD OF PREVENTING AND TREATING OBESITY-RELATED DISEASE” (priority 2023, published 2026)
Entries after “also recorded” stand apart in the source; their conditions may differ. Residues, ends and D or L forms follow the SMILES beside them.

What follows are compounds tested on hepatic gene expression (assay: Hepatic RNA-sequencing of treated mice). Settings: liver.
Type: in vivo
Method: To obtain a more comprehensive understanding of MTA's potential as an antiobesity molecule, hepatic RNA-sequencing was performed on mice treated with both MTA and B. longum to determine its underlying mechanism for preventing obesity. […] Then, we conducted an in-depth analysis of the regulated genes involved in these biological functions. […] Likewise, overexpression of inhibin beta-A, which is encoded by the Inhba gene, can stimulate mitochondrial energy metabolism and increase energy expenditure.
Bile acids are regarded as important signaling molecules to regulate fatty acid, cholesterol, energy and glucose homeostasis; therefore, enhancing bile acid synthesis may be a strategy to avoid diet-induced obesity. Furthermore, the increased expression of Cyp7a1, which encodes the rate-limiting enzyme in the classic bile acid synthesis pathway, prevents high-fat diet-induced obesity, insulin resistance and atherosclerosis.

| SMILES | expression of Cyp7a1 |
| --- | --- |
| CSC[C@H]1O[C@@H](n2cnc3c(N)ncnc32)[C@H](O)[C@@H]1O [MTA, 5′-s-methyl-5′-thioadenosine] | up-regulated |

The compounds below were run on HepG2 cells (assay: Lipid accumulation assay in uric acid-treated HepG2 cells). Settings: 120 μg/mL uric acid, 24 hours.
Type: cell-based
Method: The lipid accumulation assay was done. Briefly, HepG2 cells at 70% confluence were incubated in RPMI 1640 medium containing 120 μg/mL uric acid for 24 hours, which was used to increase the lipid accumulation. After being washed by PBS buffer, the cells were maintained in new RPMI 1640 medium containing the metabolites (5.0, 1.0, 0.5, 0.1, and 0.05 μg/mL, the dried metabolites were redissolved in RPMI 164 medium) and 120 μg/mL uric acid for another 24 hours. Cells maintained in pure RPMI 1640 medium were employed as control.
To further identify bioactive metabolites produced by B. longum, we applied a fractionation approach followed by liquid chromatography-mass spectrometry (LC-MS) coupled with in vitro screening strategy (FIG. 2A). Briefly, the extraction method of B. longum BCRC12585 metabolites (that is, B. longum metabolites, or B. longum crude extract) is the same as in Example 2, and then twenty-five fractions derived from B. longum metabolites were prepared by pre-HPLC column, followed by individually testing the anti-lipid accumulation activity with HepG2 cells. […] To identify candidate metabolites from each active fraction, further analysis was performed by using liquid chromatography coupled with high resolution mass spectrometry (LC-MS/MS). […] Collectively, we integrated in vitro, in vivo, and metabolomics data to identify the bioactive metabolites which could be produced by B. longum.

| SMILES | lipid accumulation in HepG2 cells |
| --- | --- |
| Nc1ncnc2c1ncn2[C@@H]1O[C@H](CO)[C@@H](OP(=O)(O)O)[C@H]1O [3-AMPP, 3-adenosine monophosphate] | significantly inhibited |
| N[C@@H](CCC(=O)O)C(=O)O [GA, glutamic acid] | significantly inhibited |
| CC(C)[C@H](NC(=O)[C@@H]1CCC(=O)N1)C(=O)O [Pyro-glu-val, pyro-glutamyl-valine] (HELM PEPTIDE1{[Glp].V}$$$$V2.0) | significantly inhibited |
| O=C1CC[C@@H](C(=O)O)N1 [PyroGA, pyroglutamic acid] | significantly inhibited |
| Nc1ncnc2c1ncn2[C@@H]1O[C@H](CO)[C@@H](O)[C@H]1O [adenosine] | significantly inhibited |
| CSCC[C@H](N)C(=O)O [methionine] | significantly inhibited; also recorded: exhibited a lipid-lowering effect |
| CC(C)[C@H](N)C(=O)O [valine] | significantly inhibited |
